Read-outs that look alike come from different tables or passages of the source.
Columns and labels:
Micrococcus flavus = settings: M. flavus; 0.15 nmol per well; 30°C overnight
Experimental: Agar well diffusion assay against Micrococcus flavus was performed as described previously ([van Heel et al., 2013]). 0.15 nmol of each sample was added to each well. The agar plate was incubated at 30°C overnight, after which the zone of inhibition was measured.
(§1) M. flavus was used as the indicator strain for the agar well diffusion assay, and 0.15 nmol of each sample was added to each well (Figure 3). […] Antimicrobial activity of all compounds was tested by growth inhibition assays against two clinically relevant Gram-positive pathogens, i.e., methicillin resistant S. aureus and vancomycin resistant E. faecium, as well as L. monocytogenes, and L. lactis. […] For this experiment, an activity test was performed against the NSR producing strain L. lactis NZ9000 (pNSR).

[1] = tested on: L. lactis NZ9000 (pEmpty); settings: for MIC value, L. lactis NZ9000 (pEmpty): broth microdilution (Wiegand et al. 2008), samples in 0.05% acetic acid, strain with empty plasmid
Experimental: (§2) All samples were resuspended in 0.05% aqueous acetic acid solution and the peptide amount was quantified by HPLC according to Schmitt et al. ([Schmitt et al., 2019]). The indicator strains MW2-MRSA, Enterococcus faecium, Listeria monocytogenes, and Lactococcus lactis were first streaked on GM17 plate and cultured overnight. The peptide samples were diluted with 0.05% acetic acid to a concentration of 40–320 μM (depending on the estimated activity of the peptide and the strain tested). The MIC value test was performed according to [Wiegand et al. (2008)].
as §1

[2] = tested on: Listeria monocytogenes LMG 10470
Experimental: as §2, §1

[3] = tested on: MW2-MRSA (Staphylococcus aureus MW2, methicillin resistant)
Experimental: as §2, §1

L. lactis NZ9000 (pNSR) = settings: for MIC against NZ9000 with vs without NSR production: L. lactis NZ9000 (pNSR) vs NZ9000 (pEmpty); for MIC value, L. lactis NZ9000 (pNSR): broth microdilution (Wiegand et al. 2008), strain expressing nisin resistance protein NSR
Experimental: as §2, §1

[4] = tested on: Enterococcus faecium LMG 16003 (vancomycin resistant, VRE)
Experimental: as §2, §1

[5] = broth microdilution (Wiegand et al. 2008), samples in 0.05% acetic acid, quantified by HPLC
[6] = ratio of MICs vs nisin ABC + O6

C=C1NC(=O)[C@H]([C@@H](C)CC)NC(=O)[C@H](NC(=O)/C(=C/C)NC(=O)[C@@H](N)[C@@H](C)CC)CSC[C@@H](C(=O)N[C@H]2C(=O)N3CCC[C@H]3C(=O)NCC(=O)N[C@H](C(=O)N[C@@H](CCCCN)C(=O)NCCCn3cc(CCC(=O)N4[C@H](C(=O)N5[C@H](C(=O)N6[C@H](C(=O)N7[C@H](C(=O)N8[C@H](C(=O)N9[C@H](C(=O)N[C@@H](CCCCN)C(=O)N[C@@H](CCCCN)C(=O)N[C@@H](CCCCN)C(=O)O)C[C@@H]%10CCCC[C@@H]%109)C[C@@H]9CCCC[C@@H]98)C[C@@H]8CCCC[C@@H]87)C[C@@H]7CCCC[C@@H]76)C[C@@H]6CCCC[C@@H]65)C[C@@H]5CCCC[C@@H]54)nn3)CS[C@H]2C)NC(=O)[C@H](CC(C)C)NC1=O [Nisin AB + O6K3]
Antimicrobial activity (zone of inhibition) in agar well diffusion assay (Micrococcus flavus): the only active one | MIC value, L. lactis NZ9000 (pEmpty) [1]: 10 μM

C=C1NC(=O)[C@H]([C@@H](C)CC)NC(=O)[C@H](NC(=O)/C(=C/C)NC(=O)[C@@H](N)[C@@H](C)CC)CSC[C@@H](C(=O)N[C@H]2C(=O)N3CCC[C@H]3C(=O)NCC(=O)N[C@H](C(=O)N[C@@H](CCCCN)C(=O)N[C@H]3C(=O)NCC(=O)N[C@@H](C)C(=O)N[C@@H](CC(C)C)C(=O)N[C@@H](CCSC)C(=O)NCC(=O)N[C@H](C(=O)N[C@@H](CC(N)=O)C(=O)NCCCn4cc(CCC(=O)N5[C@H](C(=O)N6[C@H](C(=O)N7[C@H](C(=O)N8[C@H](C(=O)N9[C@H](C(=O)N%10[C@H](C(=O)N[C@@H](CCCCN)C(=O)N[C@@H](CCCCN)C(=O)N[C@@H](CCCCN)C(=O)O)C[C@@H]%11CCCC[C@@H]%11%10)C[C@@H]%10CCCC[C@@H]%109)C[C@@H]9CCCC[C@@H]98)C[C@@H]8CCCC[C@@H]87)C[C@@H]7CCCC[C@@H]76)C[C@@H]6CCCC[C@@H]65)nn4)CS[C@H]3C)CS[C@H]2C)NC(=O)[C@H](CC(C)C)NC1=O [Nisin ABC + O6K3]
MIC value, L. monocytogenes [2, 5]: 10 µM | Decrease of antimicrobial activity compared to full nisin, L. monocytogenes ([2]; ratio of MICs vs nisin): 4 fold | Increase of antimicrobial activity compared to nisin ABC, L. monocytogenes ([2]; ratio of MICs vs nisin ABC): 4 fold | Increase of antimicrobial activity compared to nisin ABC + O6, L. monocytogenes [2, 6]: twice | MIC value, L. lactis NZ9000 (pEmpty) [1]: 2.5 μM | Increase of antimicrobial activity compared to nisin ABC, L. lactis ([1]; ratio of MICs vs nisin ABC): 2 fold | Increase of antimicrobial activity compared to nisin ABC + O6, L. lactis [1, 6]: twice | MIC value, MW2-MRSA [3, 5]: 80 µM | MIC against NZ9000 with vs without NSR production (L. lactis NZ9000 (pNSR)): identical MICs | MIC value, L. lactis NZ9000 (pNSR) (L. lactis NZ9000 (pNSR)): 2.5 μM | MIC value, E. faecium [4, 5]: 2.5 µM | Decrease of antimicrobial activity compared to full nisin, E. faecium ([4]; ratio of MICs vs nisin): 8 fold | Increase of antimicrobial activity compared to nisin ABC, E. faecium ([4]; ratio of MICs vs nisin ABC): 16 fold | Increase of antimicrobial activity compared to nisin ABC + O6, E. faecium [4, 6]: twice

C=C1NC(=O)[C@H]([C@@H](C)CC)NC(=O)[C@H](NC(=O)/C(=C/C)NC(=O)[C@@H](N)[C@@H](C)CC)CSC[C@@H](C(=O)N[C@H]2C(=O)N3CCC[C@H]3C(=O)NCC(=O)N[C@H](C(=O)N[C@@H](CCCCN)C(=O)N[C@H]3C(=O)NCC(=O)N[C@@H](C)C(=O)N[C@@H](CC(C)C)C(=O)N[C@@H](CCSC)C(=O)NCC(=O)N[C@H](C(=O)N[C@@H](CC(N)=O)C(=O)NCCCn4cc(CCC(=O)N5[C@H](C(=O)N6[C@H](C(=O)N7[C@H](C(=O)N8[C@H](C(=O)N9[C@H](C(=O)N%10[C@H](C(=O)O)C[C@@H]%11CCCC[C@@H]%11%10)C[C@@H]%10CCCC[C@@H]%109)C[C@@H]9CCCC[C@@H]98)C[C@@H]8CCCC[C@@H]87)C[C@@H]7CCCC[C@@H]76)C[C@@H]6CCCC[C@@H]65)nn4)CS[C@H]3C)CS[C@H]2C)NC(=O)[C@H](CC(C)C)NC1=O [Nisin ABC + O6]
MIC value, L. monocytogenes ([2]; LMG 10470): 20 µM | MIC value, L. lactis NZ9000 (pEmpty) [1]: 5.0 μM | MIC value, MW2-MRSA ([3]; MW2- ( MW2, methicillin resistant)): 80 µM | MIC against NZ9000 with vs without NSR production (L. lactis NZ9000 (pNSR)): identical MICs | MIC value, L. lactis NZ9000 (pNSR) (L. lactis NZ9000 (pNSR)): 5.0 μM | MIC value, E. faecium ([4]; LMG 16003): 5 µM

Reference: publication PMC7715017, “Conjugation of Synthetic Polyproline Moietes to Lipid II Binding Fragments of Nisin Yields Active and Stable Antimicrobials” (Frontiers in Microbiology, 2020)
